Assay [1] deals with Sprague-Dawley rats. Conditions: cited from earlier work; for Bone calcium mobilization (change from vehicle, mg/dL): as reported by Grzywacz et al. 2007.
Assay [2] concerns Sprague-Dawley rats. The settings on record: cited from earlier work; for Intestinal calcium transport (change from vehicle, serosal/mucosal ratio): as reported by Grzywacz et al. 2007.
Assay [3] has as its system Sprague-Dawley rats. Description: Bone calcium mobilization (serum calcium). The class given is in vivo, rat. The settings on record: for Bone calcium mobilization (change from vehicle, mg/dL): vehicle subtracted. How it is done: (§1) Male, weanling Sprague-Dawley rats were placed on Diet 11 (0.47% Ca) diet+AEK oil for one week followed by Diet 11 (0.02% Ca)+AEK oil for 3 weeks. The rats were then switched to a diet containing 0.47% Ca for one week followed by two weeks on a diet containing 0.02% Ca. Dose administration began during the last week on 0.02% calcium diet. Four consecutive intraperitoneal doses were given approximately 24 hours apart. Twenty-four hours after the last dose, blood was collected from the severed neck and the concentration of serum calcium determined as a measure of bone calcium mobilization. The first 10 cm of the intestine was also collected for intestinal calcium transport analysis using the everted gut sac method.

The target of assay [4] is T1, recombinant vitamin D receptor (Rattus norvegicus, UniProt P13053).
T1 construct: Fun-length recombinant rat receptor was expressed in E. coli; histidine tag (C); made in house; host or cells: E. coli BL21(DE3) Codon Plus RIL
T1 sequence (P13053 1-423): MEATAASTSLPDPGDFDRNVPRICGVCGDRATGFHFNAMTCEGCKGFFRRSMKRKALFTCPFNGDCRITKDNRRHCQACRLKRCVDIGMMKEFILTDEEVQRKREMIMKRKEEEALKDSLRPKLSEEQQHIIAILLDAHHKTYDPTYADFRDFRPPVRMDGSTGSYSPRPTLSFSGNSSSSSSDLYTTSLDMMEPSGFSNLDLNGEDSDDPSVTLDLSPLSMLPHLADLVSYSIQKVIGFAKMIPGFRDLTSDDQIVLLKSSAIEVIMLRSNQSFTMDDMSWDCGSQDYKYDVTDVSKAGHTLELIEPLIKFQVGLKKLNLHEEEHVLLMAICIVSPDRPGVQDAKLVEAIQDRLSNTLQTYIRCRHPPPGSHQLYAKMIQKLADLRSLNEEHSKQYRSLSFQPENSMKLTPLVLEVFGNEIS
Description: Vitamin D receptor binding (competitive, 3H-1,25(OH)2D3). As to the method:
Fun-length recombinant rat receptor was expressed in E. coli BL21(DE3) Codon Plus RIL cells and purified to homogeneity using two different column chromatography systems. The first system was a nickel affinity resin that utilizes the C-terminal histidine tag on this protein. The protein that was eluted from this resin was further purified using ion exchange chromatography (S-Sepharose Fast How). Aliquots of the purified protein were quick frozen in liquid nitrogen and stored at −80° C. until use. For use in binding assays, the protein was diluted in TEDK50 (50 mM […], 1.5 mM EDTA, pH 7.4, 5 mM DTT, 150 mM KCl) with 0.1% Chaps detergent. The receptor protein and ligand concentration was optimized such that no more than 20% of the added radiolabeled ligand was bound to the receptor.
Unlabeled ligands were dissolved in ethanol and the concentrations determined using UV spectrophotometry (1,25(OH)2D3: molar extinction coefficient=18,200 and λmax=265 nm; Analogs: molar extinction coefficient=42,000 and λmax=252 nm). Radiolabeled ligand (^3H-1,25(OH)2D3, ˜159 Ci/mmole) was added in ethanol at a final concentration of 1 nM.
Radiolabeled and unlabeled ligands were added to […] of the diluted protein at a final ethanol concentration of ≦10%, mixed and incubated overnight on ice to reach binding equilibrium. […] Total binding was determined from the tubes containing only radiolabeled ligand.

Assay [5] relates to 24-hydroxylase (24OHase) gene promoter. Description: In vitro transcription assay (24-hydroxylase promoter-luciferase in ROS 17/2.8 bone cells). The class given is cell-based. The settings on record: FIG. 3. As to the method:
Transcription activity was measured in ROS 17/2.8 (bone) cells that were stably transfected with a 24-hydroxylase (24OHase) gene promoter upstream of a luciferase reporter gene (Arbour et al., 1998). Cells were given a range of doses. Sixteen hours after dosing the cells were harvested and luciferase activities were measured using a luminometer. RLU=relative luciferase units.

Assay [6] relates to HL-60 cells. Kind of assay: HL-60 differentiation (nitro blue tetrazolium reduction). Conditions: FIG. 2. The class given is cell-based, human. How it is done: The study drugs were dissolved in ethanol and the concentrations determined using UV spectrophotometry. Serial dilutions were prepared so that a range of drug concentrations could be tested without changing the final concentration of ethanol ([…]) present in the cell cultures.
Human promyelocytic leukemia (HL60) cells were grown in RPMI-1640 medium containing 10% fetal bovine serum. The cells were incubated at 37° C. in the presence of 5% CO2.
HL60 cells were plated at 1.2×10^5 cells/ml. Eighteen hours after plating, cells in duplicate were treated with drug. Four days later, the cells were harvested and a nitro blue tetrazolium reduction assay was performed (Collins et al., 1979; J. Exp. Med. 149:969-974). The percentage of differentiated cells was determined by counting a total of 200 cells and recording the number that contained intracellular black-blue formazan deposits. Verification of differentiation to monocytic cells was determined by measuring phagocytic activity (data not shown).

Assay [7] relates to Sprague-Dawley rats. Description: Intestinal calcium transport (everted gut sac method). The class given is in vivo, rat. The settings on record: for Intestinal calcium transport (change from vehicle, serosal/mucosal ratio): vehicle subtracted. As to the method: as §1
Setting [8] is: 260 pmol dose, data of Grzywacz et al. 2007.

Where “and” joins values, the source holds several entries; their conditions need not be identical. Equal values may be shown once. Entries after “also recorded” stand apart in the source; their conditions may differ. Read-outs that look alike come from different tables or passages of the source.

For `C=C1[C@H](O)CC(=C/C=C2\CCC[C@]3(C)[C@@H]([C@@H](C)CCCC(C)C)CC[C@@H]23)C[C@H]1O` [26Me, 2-methylene-19-nor-(20S)-1α-hydroxyvitamin D3], the “Bone calcium mobilization activity, in words” value in assay [1] (setting [8]) was “significant activity”. The “Bone calcium mobilization (change from vehicle, mg/dL)” value in assay [1] (dose level 87 pmol) is given as 2.0 mg/dL; in assay [1] (dose level 260 pmol) it was 4.0 mg/dL; in assay [1] (dose level 780 pmol), 5.3 mg/dL; in assay [1] (dose level 2340 pmol), 5.6 mg/dL. For the same compound, the “Intestinal calcium transport activity, in words” value in assay [2] (setting [8]) was “significant activity”. The “Intestinal calcium transport (change from vehicle, serosal/mucosal ratio)” value was 6.6 serosal/mucosal ratio in assay [2] (dose level 87 pmol), 5.3 serosal/mucosal ratio in assay [2] (dose level 260 pmol), 2.3 serosal/mucosal ratio in assay [2] (dose level 780 pmol) and 5.4 serosal/mucosal ratio in assay [2] (dose level 2340 pmol). Also, the “Bone calcemic activity as multiple of that of 26N” value in assay [3] (at 2340 pmol versus 26N at the higher dose of 7020 pmol) is ~10 times.

As to `C=C1[C@H](O)CC(=C/C=C2\CCC[C@@]3(C)C2CCC3[C@@H](C)CCCCC)C[C@H]1O` (stereo in doubt) [26N, 2-methylene-19,26-nor-(20S)-1α-hydroxyvitamin D3], the “Binding to the nuclear vitamin D receptor compared with 1,25(OH)2D3 (in words)” value in assay [4] (FIG. 1) is “same affinity as 1,25(OH)2D3”; in assay [4] (FIG. 1, listed as 2-Methylene-19,26-nor-(20S)-1α-hydroxyvitamin D3), “approximately equally effective as 1,25-(OH)2D3”. Besides, in assay [5] (ROS 17/2.8 bone cells), the “Potency in increasing transcription of the 24-hydroxylase gene compared with 1,25(OH)2D3 (in words)” value is “about one log less potent than 1,25(OH)2D3”. Also, the “Times less potent than 1,25-(OH)2D3 in stimulating 24-OHase gene expression” value in assay [5] (bone cells) was “about 10 times”. Besides, the “Potency in causing differentiation of HL-60 cells into monocytes compared with 1,25(OH)2D3 (in words)” value is “same potency as 1,25(OH)2D3” in assay [6] and “same potency as 1,25-(OH)2D3” in assay [6] (listed as 2-Methylene-19,26-nor-(20S)-1α-hydroxyvitamin D3). Also, the “Intestinal calcium transport (calcemic) activity, in words” value in assay [7] (260 pmol dose) was “essentially no calcemic activity”. Further, the “Calcemic activity (intestinal calcium transport), in words” value in assay [7] (overall, FIGS. 5A, 5B) is “very low; also recorded: noticeably less active than 1,25-(OH)2D3”. The “Times less potent than 1,25(OH)2D3 in promoting active calcium transport in the rat gut” value in assay [7] (rat, FIGS. 5A and 5B) is listed as “at least 10 times”. The “Intestinal calcium transport (change from vehicle, serosal/mucosal ratio)” value in assay [7] (rat, dose level 260 pmol) is 0.1 serosal/mucosal ratio; in assay [7] (rat, dose level 7020 pmol), 8.7 serosal/mucosal ratio and 7.2 serosal/mucosal ratio; in assay [7] (rat, dose level 35100 pmol) it was 4.6 serosal/mucosal ratio. In addition, the “Bone calcium mobilization (calcemic) activity, in words” value in assay [3] (260 pmol dose) is reported as “essentially no calcemic activity”. In addition, the “Bone calcium mobilization activity, in words” value in assay [3] (7020 pmol) is “little bone calcium mobilization activity”. For the same compound, the “Times less active than 1,25-(OH)2D3 on bone calcium mobilization” value in assay [3] (as shown at the dose of 7020 pmol, FIG. 4B) was ~30 times. Further, the “Calcemic activity (bone calcium mobilization), in words” value in assay [3] (overall, FIGS. 4A, 4B) is “very low”. Further, the “Times less potent than 1,25(OH)2D3 in releasing bone calcium stores” value in assay [3] (rat, FIGS. 4A and 4B) was “approximately 30 times”. Moreover, the “Bone calcium mobilization (change from vehicle, mg/dL)” value in assay [3] (rat, dose level 260 pmol, four intraperitoneal doses) is -0.1 mg/dL; in assay [3] (rat, dose level 7020 pmol), 0.6 mg/dL and 0.8 mg/dL; in assay [3] (rat, dose level 35100 pmol), 4.0 mg/dL.

The values above are taken from patent US20110294764A1, “2-METHYLENE-19,26-NOR-(20S)-1alpha-HYDROXYVITAMIN D3” (priority 2009, published 2011).
